Assay [1] is described as follows: Inhibition of STX (unknown origin)-induced toxicity in human HeLa cells assessed as protection against toxin-induced inhibition of protein biosynthesis by measuring incorporation of [14C]-leucine into cells preincubated for 1 hr followed by toxin challenge measured after 20 hrs by liquid scintillation counting analysis. In kind it is cell-based.
The subject of a further assay is HeLa. As to the kind of experiment: Inhibition of STX (unknown origin)-induced toxicity in human HeLa cells assessed as protection against toxin-induced inhibition of protein biosynthesis by measuring incorporation of [14C]-leucine into cells at 30 uM preincubated for 1 hr followed by toxin challenge measured after 20 hrs by liquid scintillation counting analysis relative to control. It counts as cell-based.

With `Cc1ccc(/C=N/c2ccccc2C(=O)Nc2ccccc2)s1`, the EC50 (as a rule, the concentration needed to bring the measured effect to its halfway point) in assay [1] was 27000 nM.
Take `Cc1nc(-c2ccc([C@@H]3N(C)c4ccc(F)cc4C(=O)N3c3ccccc3)s2)cs1`: in the assay on HeLa, the fold change (FC) is 68. The EC50 in assay [1] was 2400 nM.
The matching figures for `Cc1nc(-c2ccc([C@H]3N(C)c4ccc(F)cc4C(=O)N3c3ccccc3)s2)cs1`: 357 and 54 nM.
As to `Cc1nc(-c2ccc(C3N(C)c4ccc(F)cc4C(=O)N3c3ccccc3)s2)cs1` (racemic), the EC50 in assay [1] is 102 nM.

(Values after ChEMBL document CHEMBL3108768 (ACS Med Chem Lett, 2014).)
